Experimental data: PubChem BioAssay (NCI)
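These data come from cells grown in 96-well plates and exposed to compound for 48 hours at five concentrations. GI50 = concentration required for 50% inhibition of growth. TGI is the concentration that stops growth completely.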

Key:
Experiment in all cases: NCI-60 cell line screen, 48 h
IGROV1 ovarian = system: IGROV1 ovarian
RPMI-8226 leukemia = system: RPMI-8226 leukemia
CCRF-CEM leukemia = system: CCRF-CEM leukemia
HCC-2998 colon = system: HCC-2998 colon
MCF7 breast = system: MCF7 breast
NCI/ADR-RES ovarian = system: NCI/ADR-RES ovarian
HOP-92 NSCLC = system: HOP-92 NSCLC
SK-MEL-28 melanoma = system: SK-MEL-28 melanoma
SF-295 CNS = system: SF-295 CNS
OVCAR-3 ovarian = system: OVCAR-3 ovarian
SK-OV-3 ovarian = system: SK-OV-3 ovarian
UACC-257 melanoma = system: UACC-257 melanoma
KM12 colon = system: KM12 colon
SN12C renal = system: SN12C renal
HCT-15 colon = system: HCT-15 colon
OVCAR-8 ovarian = system: OVCAR-8 ovarian
K-562 leukemia = system: K-562 leukemia
SF-268 CNS = system: SF-268 CNS
MOLT-4 leukemia = system: MOLT-4 leukemia
ACHN renal = system: ACHN renal
MDA-MB-231 breast = system: MDA-MB-231 breast
HOP-62 NSCLC = system: HOP-62 NSCLC
UACC-62 melanoma = system: UACC-62 melanoma
M14 melanoma = system: M14 melanoma
MALME-3M melanoma = system: MALME-3M melanoma
EKVX NSCLC = system: EKVX NSCLC
SK-MEL-5 melanoma = system: SK-MEL-5 melanoma
SW-620 colon = system: SW-620 colon
U251 CNS = system: U251 CNS
786-0 renal = system: 786-0 renal
NCI-H460 lung = system: NCI-H460 lung
SNB-75 CNS = system: SNB-75 CNS
NCI-H522 lung = system: NCI-H522 lung
MDA-MB-435 = system: MDA-MB-435
HCT-116 colon = system: HCT-116 colon
LOX IMVI melanoma = system: LOX IMVI melanoma
SNB-19 CNS = system: SNB-19 CNS
TK-10 renal = system: TK-10 renal
DU-145 prostate = system: DU-145 prostate
OVCAR-4 ovarian = system: OVCAR-4 ovarian
A498 renal = system: A498 renal
RXF 393 renal = system: RXF 393 renal
SK-MEL-2 melanoma = system: SK-MEL-2 melanoma
HL-60(TB) leukemia = system: HL-60(TB) leukemia
OVCAR-5 ovarian = system: OVCAR-5 ovarian
HS 578T breast = system: HS 578T breast
A549 NSCLC = system: A549 NSCLC
SF-539 CNS = system: SF-539 CNS
SR leukemia = system: SR leukemia
COLO 205 colon = system: COLO 205 colon
NCI-H226 lung = system: NCI-H226 lung
UO-31 renal = system: UO-31 renal
T-47D breast = system: T-47D breast
PC-3 prostate = system: PC-3 prostate
CAKI-1 renal = system: CAKI-1 renal
HT29 colon = system: HT29 colon
BT-549 breast = system: BT-549 breast

## O=C1Nc2cc(Cl)ccc2/C1=C\c1ccc(OCc2ccc(Br)cc2F)cc1
IGROV1 ovarian
  GI50: 2.07 µM
  TGI: 5.13 µM
RPMI-8226 leukemia
  GI50: 3.71 µM
  TGI: > 100 µM
CCRF-CEM leukemia
  GI50: 3.74 µM
  TGI: 22 µM
HCC-2998 colon
  GI50: 4.14 µM
  TGI: 37.4 µM
MCF7 breast
  GI50: 1.25 µM
  TGI: 15.2 µM
NCI/ADR-RES ovarian
  GI50: 2.31 µM
  TGI: 6 µM
HOP-92 NSCLC
  GI50: 1.22 µM
  TGI: 3.85 µM
SK-MEL-28 melanoma
  GI50: 2.84 µM
  TGI: 8.37 µM
SF-295 CNS
  GI50: 1.89 µM
  TGI: 3.5 µM
OVCAR-3 ovarian
  GI50: 2.08 µM
  TGI: 4.72 µM
SK-OV-3 ovarian
  GI50: 1.69 µM
  TGI: 3.33 µM
UACC-257 melanoma
  GI50: 3.3 µM
  TGI: 18.4 µM
KM12 colon
  GI50: 3.12 µM
  TGI: 73.7 µM
SN12C renal
  GI50: 1.86 µM
  TGI: 4.09 µM
HCT-15 colon
  GI50: 3.55 µM
  TGI: 50.1 µM
OVCAR-8 ovarian
  GI50: 2.46 µM
  TGI: 6.89 µM
K-562 leukemia
  GI50: 3.3 µM
  TGI: > 100 µM
SF-268 CNS
  GI50: 2.29 µM
  TGI: 6.34 µM
MOLT-4 leukemia
  GI50: 3.57 µM
  TGI: 26.1 µM
ACHN renal
  GI50: 1.83 µM
  TGI: 4.04 µM
MDA-MB-231 breast
  GI50: 2.2 µM
  TGI: 5.34 µM
HOP-62 NSCLC
  GI50: 1.79 µM
  TGI: 3.76 µM
UACC-62 melanoma
  GI50: 1.68 µM
  TGI: 3.35 µM
M14 melanoma
  GI50: 2.27 µM
  TGI: 6.69 µM
MALME-3M melanoma
  GI50: 1.97 µM
  TGI: 4.27 µM
EKVX NSCLC
  GI50: 3.85 µM
  TGI: 18 µM
SK-MEL-5 melanoma
  GI50: 5.53 µM
  TGI: 82.4 µM
SW-620 colon
  GI50: 1.9 µM
  TGI: 4.56 µM
U251 CNS
  GI50: 1.69 µM
  TGI: 3.21 µM
786-0 renal
  GI50: 1.98 µM
  TGI: 3.66 µM
NCI-H460 lung
  GI50: 0.459 µM
  TGI: 1.7 µM
SNB-75 CNS
  GI50: 1.81 µM
  TGI: 3.39 µM
NCI-H522 lung
  GI50: 1.8 µM
  TGI: 4.33 µM
MDA-MB-435
  GI50: 2.26 µM
  TGI: 5.38 µM
HCT-116 colon
  GI50: 1.38 µM
  TGI: 2.87 µM
LOX IMVI melanoma
  GI50: 1.49 µM
  TGI: 2.88 µM
SNB-19 CNS
  GI50: 1.92 µM
  TGI: 4.29 µM
TK-10 renal
  GI50: 2.51 µM
  TGI: 4.59 µM
DU-145 prostate
  GI50: 2.93 µM
  TGI: > 100 µM
OVCAR-4 ovarian
  GI50: 1.84 µM
  TGI: 3.71 µM
A498 renal
  GI50: 2.5 µM
  TGI: 5.95 µM
RXF 393 renal
  GI50: 1.65 µM
  TGI: 3.2 µM
SK-MEL-2 melanoma
  GI50: 2.97 µM
  TGI: 9.98 µM
HL-60(TB) leukemia
  GI50: 53 µM
  TGI: > 100 µM
OVCAR-5 ovarian
  GI50: 4.16 µM
  TGI: > 100 µM
HS 578T breast
  GI50: 1.91 µM
  TGI: 6.2 µM
A549 NSCLC
  GI50: 2.04 µM
  TGI: 4.62 µM
SF-539 CNS
  GI50: 1.66 µM
  TGI: 3.18 µM
SR leukemia
  GI50: 2.59 µM
  TGI: 8.18 µM
COLO 205 colon
  GI50: 2.58 µM
  TGI: 12.4 µM
NCI-H226 lung
  GI50: 2.19 µM
  TGI: 6.89 µM
UO-31 renal
  GI50: 1.49 µM
  TGI: 4.75 µM
T-47D breast
  GI50: 2.3 µM
  TGI: 6.6 µM
PC-3 prostate
  GI50: 1.7 µM
  TGI: 3.49 µM
CAKI-1 renal
  GI50: 1.67 µM
  TGI: 3.35 µM
HT29 colon
  GI50: 2.37 µM
  TGI: 6.4 µM
BT-549 breast
  GI50: 2.1 µM
  TGI: 4.69 µM

## C/C(=C(/c1ccc(O)cc1)c1ccc(OCCN2CCCCCC2)cc1)c1ccccc1
IGROV1 ovarian
  GI50: > 100 µM
  TGI: > 100 µM
RPMI-8226 leukemia
  GI50: 30.5 µM
  TGI: > 100 µM
CCRF-CEM leukemia
  GI50: 76.2 µM
  TGI: > 100 µM
HCC-2998 colon
  GI50: 34.1 µM
  TGI: > 100 µM
MCF7 breast
  GI50: 0.0615 µM
  TGI: > 100 µM
NCI/ADR-RES ovarian
  GI50: > 100 µM
  TGI: > 100 µM
HOP-92 NSCLC
  GI50: 61.8 µM
  TGI: > 100 µM
SK-MEL-28 melanoma
  GI50: 42.9 µM
  TGI: > 100 µM
SF-295 CNS
  GI50: 93.3 µM
  TGI: > 100 µM
OVCAR-3 ovarian
  GI50: > 100 µM
  TGI: > 100 µM
SK-OV-3 ovarian
  GI50: > 100 µM
  TGI: > 100 µM
UACC-257 melanoma
  GI50: 48.2 µM
  TGI: > 100 µM
KM12 colon
  GI50: 83.8 µM
  TGI: > 100 µM
SN12C renal
  GI50: > 100 µM
  TGI: > 100 µM
HCT-15 colon
  GI50: 23.8 µM
  TGI: 69.9 µM
OVCAR-8 ovarian
  GI50: > 100 µM
  TGI: > 100 µM
K-562 leukemia
  GI50: 22.7 µM
  TGI: > 100 µM
SF-268 CNS
  GI50: > 100 µM
  TGI: > 100 µM
MOLT-4 leukemia
  GI50: 32.6 µM
  TGI: > 100 µM
ACHN renal
  GI50: > 100 µM
  TGI: > 100 µM
MDA-MB-231 breast
  GI50: > 100 µM
  TGI: > 100 µM
HOP-62 NSCLC
  GI50: > 100 µM
  TGI: > 100 µM
UACC-62 melanoma
  GI50: > 100 µM
  TGI: > 100 µM
M14 melanoma
  GI50: 35.5 µM
  TGI: > 100 µM
MALME-3M melanoma
  GI50: 40.9 µM
  TGI: > 100 µM
EKVX NSCLC
  GI50: > 100 µM
  TGI: > 100 µM
SK-MEL-5 melanoma
  GI50: 66.1 µM
  TGI: > 100 µM
SW-620 colon
  GI50: 25.5 µM
  TGI: 75.5 µM
U251 CNS
  GI50: 69.9 µM
  TGI: > 100 µM
786-0 renal
  GI50: 27.1 µM
  TGI: > 100 µM
NCI-H460 lung
  GI50: 38.2 µM
  TGI: > 100 µM
SNB-75 CNS
  GI50: > 100 µM
  TGI: > 100 µM
NCI-H522 lung
  GI50: > 100 µM
  TGI: > 100 µM
MDA-MB-435
  GI50: > 100 µM
  TGI: > 100 µM
HCT-116 colon
  GI50: 34.1 µM
  TGI: > 100 µM
LOX IMVI melanoma
  GI50: 19.5 µM
  TGI: 41.5 µM
SNB-19 CNS
  GI50: > 100 µM
  TGI: > 100 µM
TK-10 renal
  GI50: > 100 µM
  TGI: > 100 µM
DU-145 prostate
  GI50: > 100 µM
  TGI: > 100 µM
OVCAR-4 ovarian
  GI50: > 100 µM
  TGI: > 100 µM
A498 renal
  GI50: > 100 µM
  TGI: > 100 µM
RXF 393 renal
  GI50: 31.2 µM
  TGI: > 100 µM
SK-MEL-2 melanoma
  GI50: > 100 µM
  TGI: > 100 µM
HL-60(TB) leukemia
  GI50: 26.5 µM
  TGI: > 100 µM
OVCAR-5 ovarian
  GI50: > 100 µM
  TGI: > 100 µM
HS 578T breast
  GI50: 60.7 µM
  TGI: > 100 µM
A549 NSCLC
  GI50: > 100 µM
  TGI: > 100 µM
SF-539 CNS
  GI50: 61.3 µM
  TGI: > 100 µM
SR leukemia
  GI50: 22 µM
  TGI: 69.6 µM
COLO 205 colon
  GI50: 17.9 µM
  TGI: 34.4 µM
NCI-H226 lung
  GI50: > 100 µM
  TGI: > 100 µM
UO-31 renal
  GI50: 57.5 µM
  TGI: > 100 µM
T-47D breast
  GI50: 11.5 µM
  TGI: > 100 µM
PC-3 prostate
  GI50: 57.9 µM
  TGI: > 100 µM
CAKI-1 renal
  GI50: 65.9 µM
  TGI: > 100 µM
HT29 colon
  GI50: 27.7 µM
  TGI: > 100 µM
BT-549 breast
  GI50: > 100 µM
  TGI: > 100 µM
